Test results as given in patent US12065654B2, “Plants having increased tolerance to herbicides” (BASF SE, priority 2014, dated 2024).

Assays:
Avena HPPD = assay: HPPD activity assay; type: biochemical, Avena sativa; conditions: HPPD enzyme Avena
Protocol: (§1) The activity assay for HPPD is based on the analysis of homogentisic acid by reversed phase HPLC.
(§2) The assay mixture can contain 150 mM potassium phosphate buffer pH 7.0, 50 mM L-ascorbic acid, 100 μM Catalase (Sigma-Aldrich), 1 μM FeSO4 and 0.2 units of purified HPPD enzyme in a total volume of 505 μl. 1 unit is defined as the amount of enzyme that is required to produce 1 nmol of HGA per minute at 20° C.
(§3) The reaction is allowed to proceed for 45 min at room temperature. The reaction is stopped by the addition of 50 μl of 4.5 M phosphoric acid. The sample is filtered using a […] pore size PVDF filtration device. 5 μl of the cleared sample is analyzed on an UPLC HSS T3 column (particle size 1.8 μm, dimensions 2, 1×50 mm; Waters) by isocratic elution using 90% 20 mM NaH2PO4 pH 2.2, 10% methanol (v/v).
(§4) HGA is detected electrochemically at 750 mV (mode: DC; polarity: positive) and quantified by integrating peak areas (Empower software; Waters).
(§5) Inhibitors are dissolved in DMSO (dimethylsulfoxide) to a concentration of 0.5 mM. From this stock solution serial five-fold dilutions are prepared in DMSO, which are used in the assay. The respective inhibitor solution accounts for 1% of the assay volume. Thus, final inhibitor concentrations range from 5 μM to 320 pM, respectively. Activities are normalized by setting the uninhibited enzyme activity to 100%. IC50 values are calculated using non-linear regression.
(§6) Using methods which are described in the above examples or well known in the art, purified recombinant wild-type HPPD enzymes are characterized with respect to their kinetic properties and sensitivity towards HPPD inhibiting herbicides. Apparent michaelis constants (Km) and maximal reaction velocities (Vmax) are calculated by non-linear regression with the software GraphPad Prism 5 (GraphPad Software, La Jolla, USA) using a substrate inhibition model. […] Weighted means (by standard error) of Km and IC50 values are calculated from at least three independent experiments. The Cheng-Prusoff equation for competitive inhibition (Cheng, Y. C.; Prusoff, W. H. Biochem Pharmacol 1973, 22, 3099-3108) is used to calculate dissociation constants (Ki).
(§7) Field performance of the HPPD enzyme, which is used as a herbicide tolerance trait may depend not only on its lack of sensitivity towards HPPD inhibiting herbicides but also on its activity. To assess the potential performance of a herbicide tolerance trait a tolerance index (TI) is calculated using the following formula: […]
(§8) Easy comparison and ranking of each trait is enabled by normalizing tolerance indexes on Arabidopsis wild-type HPPD.

Picrophilus HPPD = assay: HPPD activity assay; type: biochemical, Picrophilus torridus; conditions: HPPD enzyme Picrophilus
Protocol: as §1, §2, §3, §4, §5, §6, §7, §8

[1] = molecular target: T1, Hordeum HPPD L353M, P321R, L320Q (Hordeum vulgare, UniProt O48604, L320Q/L353M/P321R); assay: HPPD activity assay, mutant; type: biochemical; conditions: Hordeum HPPD variant L353M, normalized on wild-type;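 note: reaction started with 4-HPP at 0.05 mM after 30 min preincubation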
T1 construct: His-tag (N); made in house; host or cells: E. coli BL21 (DE3)
T1 sequence (O48604 whole entry R146V/R147D/R148G/A164G/L320Q/P321R/L353M): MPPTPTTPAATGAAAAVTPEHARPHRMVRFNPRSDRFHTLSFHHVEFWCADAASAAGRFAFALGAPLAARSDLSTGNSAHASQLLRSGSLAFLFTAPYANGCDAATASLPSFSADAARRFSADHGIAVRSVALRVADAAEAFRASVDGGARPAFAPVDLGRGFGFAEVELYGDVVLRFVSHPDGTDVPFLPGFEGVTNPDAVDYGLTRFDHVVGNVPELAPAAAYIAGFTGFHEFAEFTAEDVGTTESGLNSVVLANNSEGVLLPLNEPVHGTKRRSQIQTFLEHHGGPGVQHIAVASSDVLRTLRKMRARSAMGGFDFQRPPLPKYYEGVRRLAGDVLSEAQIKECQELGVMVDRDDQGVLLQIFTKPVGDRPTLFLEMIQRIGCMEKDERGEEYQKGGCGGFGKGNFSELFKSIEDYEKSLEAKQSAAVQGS
Protocol: as §1, §2, §3, §4, §5
(§9) Purified, mutant HPPD enzymes are obtained by the methods described above. Dose response and kinetic measurements are carried out using the described HPPD activity assay. Apparent michaelis constants (Km) and maximal reaction velocities (Vmax) are calculated by non-linear regression with the software GraphPad Prism 5 (GraphPad Software, La Jolla, USA) using a substrate inhibition model. […] Weighted means (by standard error) of K. and IC50 values are calculated from at least three independent experiments. The Cheng-Prusoff equation for competitive inhibition (Cheng, Y. C.; Prusoff, W. H. Biochem Pharmacol 1973, 22, 3099-3108) is used to calculate dissociation constants (Ki).
(§10) Field performance of the optimized HPPD enzyme, which is used as a herbicide tolerance trait may depend not only on its lack of sensitivity towards HPPD inhibiting herbicides but also on its activity. To assess the potential performance of a herbicide tolerance trait a tolerance index (TI) is calculated using the following formula: […]
(§11) Easy comparison and ranking of each trait is enabled by normalizing tolerance indexes on the respective wild-type HPPD.

Hordeum HPPD F404L = molecular target: T2, Hordeum HPPD F404L (Hordeum vulgare, UniProt O48604, A164G/F404L/R146V/R147D/R148G); assay: HPPD activity assay, mutant; type: biochemical; conditions: Hordeum HPPD variant F404L; normalized on wild-type
T2 construct: subcloned into a modified pET24D (Novagen) expression vector resulting in N-terminally His-tagged expression constructs; His tag (N); made in house; host or cells: E. coli BL21 (DE3)
T2 sequence (O48604 whole entry R146V/R147D/R148G/A164G/F404L): as the sequence (O48604 whole entry R146V/R147D/R148G/A164G/L320Q/P321R/L353M) above, with Q320L, R321P, M353L, F404L counted along it
Protocol: as §1, §2, §3, §4, §5, §9, §10, §11

Hordeum HPPD L334E = molecular target: T3, Hordeum HPPD L334E (Hordeum vulgare, UniProt O48604, A164G/L334E/R146V/R147D/R148G); assay: HPPD activity assay, mutant; type: biochemical; conditions: Hordeum HPPD variant L334E; normalized on wild-type;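 note: reaction started with 4-HPP at 0.05 mM after 30 min preincubation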
T3 construct: His-tag (N); made in house; host or cells: E. coli BL21 (DE3)
T3 sequence (O48604 whole entry R146V/R147D/R148G/A164G/L334E): as the sequence (O48604 whole entry R146V/R147D/R148G/A164G/L320Q/P321R/L353M) above, with Q320L, R321P, L334E, M353L counted along it
Protocol: as §1, §2, §3, §4, §5, §9, §10, §11

Hordeum HPPD L320Q = molecular target: T4, Hordeum HPPD L320Q (Hordeum vulgare, UniProt O48604, A164G/L320Q/R146V/R147D/R148G); assay: HPPD activity assay, mutant; type: biochemical; conditions: Hordeum HPPD variant L320Q; normalized on wild-type
T4 construct: His-tag (N); made in house; host or cells: E. coli BL21 (DE3)
T4 sequence (O48604 whole entry R146V/R147D/R148G/A164G/L320Q): as the sequence (O48604 whole entry R146V/R147D/R148G/A164G/L320Q/P321R/L353M) above, with R321P, M353L counted along it
Protocol: as §1, §2, §3, §4, §5, §9, §10, §11

Hordeum HPPD R309K = molecular target: T5, Hordeum HPPD R309K (Hordeum vulgare, UniProt O48604, A164G/R146V/R147D/R148G/R309K); assay: HPPD activity assay, mutant; type: biochemical; conditions: Hordeum HPPD variant R309K; normalized on wild-type
T5 construct: subcloned into a modified pET24D (Novagen) expression vector resulting in N-terminally His-tagged expression constructs; His tag (N); made in house; host or cells: E. coli BL21 (DE3)
T5 sequence (O48604 whole entry R146V/R147D/R148G/A164G/R309K): as the sequence (O48604 whole entry R146V/R147D/R148G/A164G/L320Q/P321R/L353M) above, with R309K, Q320L, R321P, M353L counted along it
Protocol: as §1, §2, §3, §4, §5, §9, §10, §11

Hordeum HPPD L320H = molecular target: T6, Hordeum HPPD L320H (Hordeum vulgare, UniProt O48604, A164G/L320H/R146V/R147D/R148G); assay: HPPD activity assay, mutant; type: biochemical; conditions: Hordeum HPPD variant L320H; normalized on wild-type;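 note: reaction started with 4-HPP at 0.05 mM after 30 min preincubation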
T6 construct: His-tag (N); made in house; host or cells: E. coli BL21 (DE3)
T6 sequence (O48604 whole entry R146V/R147D/R148G/A164G/L320H): as the sequence (O48604 whole entry R146V/R147D/R148G/A164G/L320Q/P321R/L353M) above, with Q320H, R321P, M353L counted along it
Protocol: as §1, §2, §3, §4, §5, §9, §10, §11

Hordeum HPPD L320N = molecular target: T7, Hordeum HPPD L320N (Hordeum vulgare, UniProt O48604, A164G/L320N/R146V/R147D/R148G); assay: HPPD activity assay, mutant; type: biochemical; conditions: Hordeum HPPD variant L320N; normalized on wild-type;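 note: reaction started with 4-HPP at 0.05 mM after 30 min preincubation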
T7 construct: His-tag (N); made in house; host or cells: E. coli BL21 (DE3)
T7 sequence (O48604 whole entry R146V/R147D/R148G/A164G/L320N): as the sequence (O48604 whole entry R146V/R147D/R148G/A164G/L320Q/P321R/L353M) above, with Q320N, R321P, M353L counted along it
Protocol: as §1, §2, §3, §4, §5, §9, §10, §11

Kordia HPPD = assay: HPPD activity assay; type: biochemical; conditions: HPPD enzyme Kordia
Protocol: as §1, §2, §3, §4, §5, §6, §7, §8

Lolium HPPD = assay: HPPD activity assay; type: biochemical; conditions: HPPD enzyme Lolium
Protocol: as §1, §2, §3, §4, §5, §6, §7, §8

Synechococcus HPPD = assay: HPPD activity assay; type: biochemical; conditions: HPPD enzyme Synechococcus
Protocol: as §1, §2, §3, §4, §5, §6, §7, §8

Rhodococcus HPPD1 = assay: HPPD activity assay; type: biochemical; conditions: HPPD enzyme Rhodococcus HPPD1
Protocol: as §1, §2, §3, §4, §5, §6, §7, §8

[2] = molecular target: T8, Hordeum HPPD (SEQ ID NO:2) (Hordeum vulgare, UniProt O48604, A164G/R146V/R147D/R148G); assay: HPPD activity assay; type: biochemical; conditions: for Normalized tolerance index (TI): Hordeum HPPD variant Wild-type (reference, SEQ ID NO: 2); for TI (tolerance index): Hordeum HPPD, not normalized
T8 construct: His-tag (N); made in house; host or cells: E. coli BL21 (DE3)
T8 sequence (O48604 whole entry R146V/R147D/R148G/A164G): as the sequence (O48604 whole entry R146V/R147D/R148G/A164G/L320Q/P321R/L353M) above, with Q320L, R321P, M353L counted along it
Protocol: as §1, §2, §3, §4, §5, §6, §7, §8

Rhodococcus HPPD2 = assay: HPPD activity assay; type: biochemical; conditions: HPPD enzyme Rhodococcus HPPD2
Protocol: as §1, §2, §3, §4, §5, §6, §7, §8

With Cc1c(C(=O)c2cnn(C)c2O)ccc(S(C)(=O)=O)c1C1=NOCC1 [Inhibitor 1, [3-(4,5-dihydroisoxazol-3-yl)-2-methyl-4-methylsulfonyl-phenyl]-(5-hydroxy-1-methyl-pyrazol-4-yl)methanone] the “TI normalized to Arabidopsis HPPD” value (Avena HPPD) was 1.6, the “TI normalized to Arabidopsis HPPD” value (Picrophilus HPPD) was 10.4 and the “Normalized tolerance index (TI)” value [1] was 5.3. The “Normalized tolerance index (TI)” value (Hordeum HPPD F404L) was 3, the “Normalized tolerance index (TI)” value (Hordeum HPPD L334E) was 3.6 and the “Normalized tolerance index (TI)” value (Hordeum HPPD L320Q) was 1.2. For the same compound, the “Normalized tolerance index (TI)” value (Hordeum HPPD R309K) was 1.5, the “Normalized tolerance index (TI)” value (Hordeum HPPD L320H) was 5.4 and the “Normalized tolerance index (TI)” value (Hordeum HPPD L320N) was 1.3. The “TI normalized to Arabidopsis HPPD” value (Kordia HPPD) was 3.2, the “TI normalized to Arabidopsis HPPD” value (Lolium HPPD) was 1.7 and the “TI normalized to Arabidopsis HPPD” value (Synechococcus HPPD) was 6.7. The “TI normalized to Arabidopsis HPPD” value (Rhodococcus HPPD1) was 18.9, the Ki [2] was 0.0079 µM and the “Normalized tolerance index (TI)” value [2] was 1. For the same compound, the “TI (tolerance index)” value [2] was 3.5E−3 and the “TI normalized to Arabidopsis HPPD” value (Rhodococcus HPPD2) was 19.3.
For CS(=O)(=O)c1ccc(C(=O)C2C(=O)CCCC2=O)c([N+](=O)[O-])c1 [Inhibitor 2, 2-(4-methylsulfonyl-2-nitro-benzoyl)cyclohexane-1,3-dione], the “TI normalized to Arabidopsis HPPD” value (Avena HPPD) was 3, the “TI normalized to Arabidopsis HPPD” value (Picrophilus HPPD) was 0.2 and the “Normalized tolerance index (TI)” value [1] was 2.2. For the same compound, the “Normalized tolerance index (TI)” value (Hordeum HPPD F404L) was 0.9, the “Normalized tolerance index (TI)” value (Hordeum HPPD L334E) was 4 and the “Normalized tolerance index (TI)” value (Hordeum HPPD L320Q) was 0.3. The “Normalized tolerance index (TI)” value (Hordeum HPPD R309K) was 1.3, the “Normalized tolerance index (TI)” value (Hordeum HPPD L320H) was 1.2 and the “Normalized tolerance index (TI)” value (Hordeum HPPD L320N) was 0.3. For the same compound, the “TI normalized to Arabidopsis HPPD” value (Kordia HPPD) was 0.1, the “TI normalized to Arabidopsis HPPD” value (Lolium HPPD) was 2.6 and the “TI normalized to Arabidopsis HPPD” value (Synechococcus HPPD) was 2.1. The “TI normalized to Arabidopsis HPPD” value (Rhodococcus HPPD1) was 0.3, the Ki [2] was 0.073 µM and the “Normalized tolerance index (TI)” value [2] was 1. The “TI (tolerance index)” value [2] was 3.2E−2 and the “TI normalized to Arabidopsis HPPD” value (Rhodococcus HPPD2) was 0.3.
For COCCOCc1nc(C(F)(F)F)ccc1C(=O)C1=C(O)C2CCC(C2)C1=O (stereo not shown) [Inhibitor 3, 2-hydroxy-3-[2-(2-methoxyethoxymethyl)-6-(trifluoromethyl)pyridine-3-carbonyl]bicyclo[3.2.1]oct-2-en-4-one], the “TI normalized to Arabidopsis HPPD” value (Avena HPPD) was 2.5, the “TI normalized to Arabidopsis HPPD” value (Picrophilus HPPD) was 7.8 and the “Normalized tolerance index (TI)” value [1] was 0.6. The “Normalized tolerance index (TI)” value (Hordeum HPPD F404L) was 0.4, the “Normalized tolerance index (TI)” value (Hordeum HPPD L334E) was 1.2 and the “Normalized tolerance index (TI)” value (Hordeum HPPD L320Q) was 1.1. The “Normalized tolerance index (TI)” value (Hordeum HPPD R309K) was 2.5, the “Normalized tolerance index (TI)” value (Hordeum HPPD L320H) was 3 and the “Normalized tolerance index (TI)” value (Hordeum HPPD L320N) was 1.2. For the same compound, the “TI normalized to Arabidopsis HPPD” value (Kordia HPPD) was 0.3, the “TI normalized to Arabidopsis HPPD” value (Lolium HPPD) was 2.5 and the “TI normalized to Arabidopsis HPPD” value (Synechococcus HPPD) was 0.0. For the same compound, the “TI normalized to Arabidopsis HPPD” value (Rhodococcus HPPD1) was 1.2, the “Normalized tolerance index (TI)” value [2] was 1 and the “TI normalized to Arabidopsis HPPD” value (Rhodococcus HPPD2) was 1.3.
CS(=O)(=O)c1ccc(C(=O)C2C(=O)CCCC2=O)c(Cl)c1COCC(F)(F)F [Inhibitor 4, 2-[2-chloro-4-methylsulfonyl-3-(2,2,2-trifluoroethoxymethyl)benzoyl]cyclohexane-1,3-dione] was tested, and the “TI normalized to Arabidopsis HPPD” value (Avena HPPD) was 3, the “TI normalized to Arabidopsis HPPD” value (Picrophilus HPPD) was 0.4 and the “Normalized tolerance index (TI)” value [1] was 1.3. The “Normalized tolerance index (TI)” value (Hordeum HPPD F404L) was 1.2, the “Normalized tolerance index (TI)” value (Hordeum HPPD L334E) was 2.1 and the “Normalized tolerance index (TI)” value (Hordeum HPPD L320Q) was 1. The “Normalized tolerance index (TI)” value (Hordeum HPPD R309K) was 4.6, the “Normalized tolerance index (TI)” value (Hordeum HPPD L320H) was 5.1 and the “Normalized tolerance index (TI)” value (Hordeum HPPD L320N) was 1.5. For the same compound, the “TI normalized to Arabidopsis HPPD” value (Kordia HPPD) was 0.1, the “TI normalized to Arabidopsis HPPD” value (Lolium HPPD) was 2.6 and the “TI normalized to Arabidopsis HPPD” value (Synechococcus HPPD) was 0.1. The “TI normalized to Arabidopsis HPPD” value (Rhodococcus HPPD1) was 0.6, the “Normalized tolerance index (TI)” value [2] was 1 and the “TI normalized to Arabidopsis HPPD” value (Rhodococcus HPPD2) was 0.5.
